The results in this text go back to patent US11491105B2, “Methods of treating microbial infections, including mastitis” (priority 2013, dated 2022).

Converted amounts (≈) assume the structure as drawn.

For assay [1], the system named is Staphylococcus isolates (methicillin-sensitive and methicillin-resistant). The experiment in a line: Minimum bactericidal concentration determination (Example 1). Type of assay: cell-based. The settings on record: for bactericidal activity (MBC testing): methicillin-sensitive and methicillin-resistant strains. As for the experimental part: Following determination of the MIC using the 96 well MIC plate, a variation of the drop plate method was used to determine minimum bactericidal concentration (MBC) for each of the test compounds. These were analysed using samples taken from the MIC plate following incubation. For each compound, a 10 μL drop of each concentration equal to or higher than the MIC was pipetted onto Sheep Blood Agar in a clockwise manner (FIG. 3). Each concentration was pipetted in duplicate with duplicates being pipetted on an inner ring of drops. The plates were incubated at 37° C. overnight and assessed the following day for growth. The MBC was defined as the concentration at which 99.9% of colonies were eradicated, which was visually assessed by a lack of growth on the agar where the drop was placed. […] The MBC values for 50% and 90% of the isolates (MBC50 and MBC90) were calculated and assessed along with the MBC range in order to select compounds for further study.

Assay [2] relates to ATCC 49775 reference strain. The experiment in a line: Microdilution time-kill assay. Format: cell-based, Staphylococcus. The settings on record: for growth (optical density) compared to growth control: over a 48 hour period. As for the experimental part:
Following assessment of MIC and MBC results, two compounds were chosen for analysis using microdilution time-kill assays, LP 1369 and LP 6315 and these were compared to ampicillin. Time-kill assays were performed according to the M26-A guidelines of the CLSI, with modifications. The test compounds and ampicillin were serial diluted in CAMHB across the rows of a 96 well plate and a bacterial suspension was prepared and added in the same manner as the MIC testing. […] The time points assessed were 0, 1, 2, 4, 8, 12, 24 and 48 hours after the addition of the bacterial suspension to the wells. Each test compound was tested in triplicate while ampicillin was tested in duplicate and this test was independently repeated. The bacterial strains used for the microdilution assays were chosen based on bactericidal activity evident during MBC testing. One strain from each of the categories of Staphylococcus in the isolate collection (methicillin-sensitive, methicillin resistant and coagulase negative) were selected as well as the ATCC reference strain for comparison. These strains were strains MSS 1, MSS 11, MRSA 9 and the ATCC 49775 reference strain.
(In broth dilution the organism is exposed to a series of concentrations in liquid medium.)

Assay [3] deals with ATCC 49775 reference strain. Description: Macrodilution time-kill assay. Format: cell-based, Staphylococcus. To be noted: 24 hours. As for the experimental part:
(§1) Due to the detection limit of the OD measurements, the time-kill assays were also performed in macrodilution. In 15 mL tubes, 9 mL volumes of the test compounds in CAMHB were prepared at one, four and eight times the MIC concentration and 9 mL volumes of ampicillin were prepared in CAMHB at one and four times the MIC. 1 mL of a 4 to 5×10^6 bacterial suspension (as prepared for MIC testing) was added to each of the tubes as well as a growth control tube containing only 9 mL of CAMHB. These tubes were incubated at 37° C. in an orbital shaker rotating at 100 rpm for 24 hours. At 0, 1, 4, 8, 12 and 24 hours after addition of the bacteria, 100 μL samples were removed from each tube and serial diluted in 9.1 g/L saline solution. The dilutions were then plated in duplicate onto plate count agar and incubated for 24 hours at 37° C. After incubation, viable counts were obtained from the number of colonies visible on the agar and these were used to calculate the number of CFU/mL at each time point. For the macrodilution time-kill analysis, only the ATCC 49775 reference strain and MRSA 9 were assessed in order to further investigate the antibacterial activity against methicillin-resistant strains. These macrodilution time-kill assays were independently repeated and bactericidal activity was defined as a ≥3 log decrease in the number of CFU/mL.

The subject of the next assay is MRSA 9. The experiment in a line: Macrodilution time-kill assay. Format: cell-based, Staphylococcus aureus. To be noted: 24 hours. As for the experimental part: as §1
The test system of a further assay is bovine mastitis isolates. Description: Minimum inhibitory concentration assay (Example 3). Type of assay: cell-based. To be noted: for MIC90: 51 Australian bovine mastitis isolates. The text has this: Fifty-one dairy bovine mastitis isolates, encompassing a variety of bacterial species, were isolated from milk samples collected from dairy farms in rural South Australia by the University of Adelaide Ambulatory Clinic. Cellular morphology observed from Gram stains and catalase testing was used to differentiate Staphylococcus, Streptococcus and Corynebacterium species from Gram-negative species. Further biochemical testing including coagulase, Lancefield grouping, esculin hydrolysis and CAMP tests were used to identify the isolates to species level. Where biochemical test results were not definitive in identifying species, amplification and sequencing of the 16S ribosomal RNA gene was used to confirm the identity of the isolates.
Minimum inhibitory concentration tests were performed in the manner outlined by the CLSI (CLSI 2012). Test compounds were dispensed into a 96-well microtitre tray containing 90 μl of CAMHB in 90 μl volumes and serial diluted to obtain a concentration gradient ranging from 128 μg/ml to 0.25 μg/ml (see FIG. 24). For Streptococcus species, CAMHB was replaced with a CAMHB supplement with 4% lysed-sheep blood (4% LSB:CAMHB). 4% LSB:CAMHB was prepared by mixing 5 ml sheep blood to 5 ml milliQ water, and repeated freezing at −20° C. and thawing, followed by centrifuged for 20 min at 7000 rpm. 7 ml of the supernatant was removed and added to 93 mL of CAMB.
Bacterial suspensions were prepared by emulsifying fresh colonies obtained from an overnight culture on Sheep Blood Agar (SBA) in 4 mls of 9.1 g/l physiological saline to an optical density read at 600 nm (OD600nm) between 1.00 and 1.20. Standardised bacterial suspensions were diluted 1:10 in physiological saline and dispensed into all wells, excluding the negative control wells, in 10 μL volumes giving a final concentration of between 4×10^5 and 5×10^5 CFU/mL in each well. 96-well microtitre trays were incubated for 24 hours at 37° C. in 5% CO2 and then assessed both visually and using OD readings from a microplate reader at a wavelength of 600 nm. These tests were performed in duplicate and repeated if discrepancies in MIC values were observed between replicates.
The minimum inhibitory concentration (MIC) was determined to be the lowest concentration of antibiotic that prevented growth of bacteria both visually and using OD readings. MIC values were collated and used to determine the lowest concentration of each compound effective against 50% and 90% of isolates, known as the MIC50 and MIC90 respectively. These values as well as the range of MIC values were then used for direct comparisons between test compounds and for general comparisons with ampicillin.

Turning to `CC[C@@H](C(=O)[C@@H](C)[C@@H](O)[C@H](C)CCc1ccc(C)c(O)c1C(=O)O)[C@H]1O[C@](CC)([C@H]2CC[C@](O)(CC)[C@H](C)O2)C[C@@H]1C` [LP 1369, Lasalocid], in assay [1], the “strains against which bactericidal activity was exhibited more consistently” value is recorded as “methicillin-sensitive strains” and the “bactericidal activity (MBC testing)” value is listed as “some bactericidal activity in lower concentrations”. Moreover, the “MBC50 (rank among test compounds)” value in assay [1] (methicillin-sensitive isolates) is “lowest MBC50 values”. Also, the “growth (optical density) compared to growth control” value in assay [2] was “prevented the growth”. Besides, in assay [3] (all concentrations tested), the “decrease in the number of viable bacteria” value is below 3 log10. For the same molecule, in the assay with MRSA 9 (all concentrations tested), the “decrease in the number of viable bacteria” value was below 3 log10. Further, in the assay on bovine mastitis isolates, the “MIC values (in words)” value is given as “low MIC values”; the “antibacterial activity against the bovine mastitis isolates” value is given as “observed”; the MIC90 (usually an inhibitory concentration at the 90% level, which refers to growth in some studies and to a panel of isolates in others) amounted to 4 µg/mL (≈ 6.77 µM).
Regarding `CO[C@@H]1[C@@H](OC)[C@H](C)[C@@](O)(CC(=O)O)O[C@H]1[C@H](C)[C@H]1O[C@@]2(CC[C@@](C)([C@H]3CC[C@@](C)([C@@H]4O[C@@H]([C@H]5O[C@](C)(O)[C@H](C)C[C@@H]5C)C[C@@H]4O[C@@H]4C[C@H](OC)[C@@H](OC)[C@H](C)O4)O3)O2)C[C@H](O)[C@H]1C.N` [LP 6315, Maduramicin], in assay [1], the “strains against which bactericidal activity was exhibited more consistently” value is recorded as “methicillin-sensitive strains” and the “bactericidal activity (MBC testing)” value was “some bactericidal activity in lower concentrations”. For the same molecule, in assay [1] (methicillin-resistant isolates), the “MBC50 (rank among test compounds)” value was “lowest MBC50 values”. Moreover, in assay [2] (at the MIC, 48 hours), the “growth at the MIC” value was “Some growth was observed after 48 hours”. Besides, the “growth (optical density) compared to growth control” value in assay [2] is given as “prevented the growth”. In addition, the “bactericidal or bacteriostatic (>=3 log decrease in CFU/mL = bactericidal)” value in assay [3] (LP 6315: most concentrations) is “bacteriostatic”. Moreover, the “bactericidal or bacteriostatic (>=3 log decrease in CFU/mL = bactericidal)” value in the assay on MRSA 9 (LP 6315: most concentrations) is “bacteriostatic”. This molecule also returned a decrease in colonies in the assay on MRSA 9 (four times the MIC) above 3 log10. In the assay on bovine mastitis isolates, the “MIC values (in words)” value is on record as “low MIC values”, the “antibacterial activity against the bovine mastitis isolates” value is “observed” and the MIC90 was 4 µg/mL.
